Calls of active or inactive are those of the source. How the calls were made is not given here.
Tested on: rodent carcinogenicity bioassays, tumor incidence
Test: CCRIS carcinogenicity studies
How it was run: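 Archive of carcinogenicity, mutagenicity, tumor promotion and tumor inhibition results drawn from journals, NCI reports and other sources, expert-reviewed; covers 1985-2011 and is no longer updated.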

c1ccc2c3c(ccc2c1)-c1cccc2cccc-3c12
carcinogen call (Species: MOUSE, Route: DERMAL, Tumor Site: Type of Lesion: INTEGUMENTARY SYSTEM (SKIN)): active; positive
carcinogen call (Species: MOUSE, Strain/Sex: CD-1/FEMALE, Route: INTRAPERITONEAL, Dose: 0, 0.11, 0.275, 1.1 UMOL (TOTAL DOSE) ADMINISTERED OVER DAYS 1, 8, AND 15 OF LIFE (STUDY DURATION: 52 WEEKS), Dose: 0, 0.11, 0.275, 1.1 UMOL (TOTAL DOSE) ADMINISTERED OVER DAYS 1, 8, AND 15 OF LIFE (STUDY DURATION: 52 WEEKS), Tumor Site: Type of Lesion: LUNG: ALVEOLAR/BRONCHIOLAR CARCINOMA): active; positive
carcinogen call (Species: MOUSE, Strain/Sex: CD-1/MALE, Route: INTRAPERITONEAL, Dose: 0, 0.11, 0.275, 1.1 UMOL (TOTAL DOSE) ADMINISTERED OVER DAYS 1, 8, AND 15 OF LIFE (STUDY DURATION: 52 WEEKS), Dose: 0, 0.11, 0.275, 1.1 UMOL (TOTAL DOSE) ADMINISTERED OVER DAYS 1, 8, AND 15 OF LIFE (STUDY DURATION: 52 WEEKS), Tumor Site: Type of Lesion: LUNG: ALVEOLAR/BRONCHIOLAR CARCINOMA, LIVER: ADENOMA OR CARCINOMA): active; positive
carcinogen call (Species: RAT, Strain/Sex: OSBORNE-MENDEL/FEMALE, Route: LUNG IMPLANT, Dose: 0, 0.2, 1.0, 5.0 MG IN BEESWAX/TRIOCTANOIN (STUDY DURATION: LIFETIME), Dose: 0, 0.2, 1.0, 5.0 MG IN BEESWAX/TRIOCTANOIN (STUDY DURATION: LIFETIME), Tumor Site: Type of Lesion: LUNG: EPIDERMOID CARCINOMA): active; positive

Cc1cnc(C2=NC(C)(C(C)C)C(=O)N2)c(C(=O)O)c1 (centres undefined)
carcinogen call (Species: Mouse, Strain/Sex: CD-1[Crl(ICR)BR]/Female (55/Group), Route: Oral, Dose: 0, 1750, 3500, 7000 ppm of 96.9% imazapic in diet for 18 mo, study duration 18 mo, Dose: 0, 1750, 3500, 7000 ppm of 96.9% imazapic in diet for 18 mo, study duration 18 mo): inactive; negative
carcinogen call (Species: Mouse, Strain/Sex: CD-1[Crl(ICR)BR]/Male (55/Group), Route: Oral, Dose: 0, 1750, 3500, 7000 ppm of 96.9% imazapic in diet for 18 mo, study duration 18 mo, Dose: 0, 1750, 3500, 7000 ppm of 96.9% imazapic in diet for 18 mo, study duration 18 mo): inactive; negative
carcinogen call (Species: Rat, Strain/Sex: Crl:CD(SD)BR/Female (55/Group), Route: Oral, Dose: 0, 5000, 10,000, 20,000 ppm of 96.4% imazapic in diet for 24 mo, study duration 24 mo, Dose: 0, 5000, 10,000, 20,000 ppm of 96.4% imazapic in diet for 24 mo, study duration 24 mo): inactive; negative
carcinogen call (Species: Rat, Strain/Sex: Crl:CD(SD)BR/Male (55/Group), Route: Oral, Dose: 0, 5000, 10,000, 20,000 ppm of 96.4% imazapic in diet for 24 mo, study duration 24 mo, Dose: 0, 5000, 10,000, 20,000 ppm of 96.4% imazapic in diet for 24 mo, study duration 24 mo): inactive; negative

O=C1C(O)N=C(c2ccccc2F)c2cc(Cl)ccc2N1CCO (centres undefined)
carcinogen call (Species: RAT, Strain/Sex: SPRAGUE-DAWLEY/FEMALE, Route: ORAL, Dose: 0, 3, 10, 30 MG/KG IN THE DIET FOR 104 WK (STUDY DURATION: 104 WK), Dose: 0, 3, 10, 30 MG/KG IN THE DIET FOR 104 WK (STUDY DURATION: 104 WK)): inactive; negative
carcinogen call (Species: RAT, Strain/Sex: SPRAGUE-DAWLEY/MALE, Route: ORAL, Dose: 0, 3, 10, 30 MG/KG IN THE DIET FOR 104 WK (STUDY DURATION: 104 WK), Dose: 0, 3, 10, 30 MG/KG IN THE DIET FOR 104 WK (STUDY DURATION: 104 WK)): inactive; negative

O=C1CCCCCN1
carcinogen call (Species: MOUSE, Strain/Sex: B6C3F1/FEMALE, Route: ORAL, Dose: 0, 7500, 15000 PPM IN DIET, Dose: 0, 7500, 15000 PPM IN DIET): inactive; negative
carcinogen call (Species: MOUSE, Strain/Sex: B6C3F1/MALE, Route: ORAL, Dose: 0, 7500, 15000 PPM IN DIET, Dose: 0, 7500, 15000 PPM IN DIET): inactive; negative
carcinogen call (Species: RAT, Strain/Sex: F344/FEMALE, Route: ORAL, Dose: 0, 3750, 7500 PPM IN DIET, Dose: 0, 3750, 7500 PPM IN DIET): inactive; negative
carcinogen call (Species: RAT, Strain/Sex: F344/MALE, Route: ORAL, Dose: 0, 3750, 7500 PPM IN DIET, Dose: 0, 3750, 7500 PPM IN DIET): inactive; negative

CCC(=O)C(CC(C)N(C)C)(c1ccccc1)c1ccccc1 (centres undefined)
carcinogen call (Species: MOUSE, Strain/Sex: B6C3F1/FEMALE, Route: ORAL, Dose: 0, 15, 60 MG/KG IN DIET FOR DURATION OF STUDY (STUDY DURATION: 108 WK), Dose: 0, 15, 60 MG/KG IN DIET FOR DURATION OF STUDY (STUDY DURATION: 108 WK)): inactive; negative
carcinogen call (Species: MOUSE, Strain/Sex: B6C3F1/MALE, Route: ORAL, Dose: 0, 15, 60 MG/KG IN DIET FOR DURATION OF STUDY (STUDY DURATION: 108 WK), Dose: 0, 15, 60 MG/KG IN DIET FOR DURATION OF STUDY (STUDY DURATION: 108 WK)): inactive; negative
carcinogen call (Species: RAT, Strain/Sex: F344/FEMALE, Route: ORAL, Dose: 0, 28, 88 MG/KG IN DIET FOR DURATION OF STUDY (STUDY DURATION: 108 WK), Dose: 0, 28, 88 MG/KG IN DIET FOR DURATION OF STUDY (STUDY DURATION: 108 WK)): inactive; negative
carcinogen call (Species: RAT, Strain/Sex: F344/MALE, Route: ORAL, Dose: 0, 16, 46 MG/KG IN DIET FOR DURATION OF STUDY (STUDY DURATION: 108 WK), Dose: 0, 16, 46 MG/KG IN DIET FOR DURATION OF STUDY (STUDY DURATION: 108 WK)): inactive; negative

CCCl
carcinogen call (Species: MOUSE, Strain/Sex: B6C3F1/FEMALE, Route: INHALATION, Dose: 0, 15000 PPM IN AIR 6 HR/D 5 D/WK FOR 100 WK (STUDY DURATION: 100 WK), Tumor Site: Type of Lesion: LIVER: HEPATOCELLULAR CARCINOMA, LIVER: HEPATOCELLULAR ADENOMA OR CARCINOMA, UTERUS: CARCINOMA, Tumor Site: Type of Lesion: LIVER: HEPATOCELLULAR CARCINOMA, LIVER: HEPATOCELLULAR ADENOMA OR CARCINOMA, UTERUS: CARCINOMA): active; positive
carcinogen call (Species: Mouse, Strain/Sex: B6C3F1/Female (50/Group), Route: Inhalation, Dose: 0, 15,000 ppm 6 hr/d, 5 d/wk for 100 wk, Tumor Site: Type of Lesion: Uterus: carcinoma (2% vs 90%, p<10-8), Uterus: lymphoma (2% vs 14%, p=0.03), Liver: adenoma and carcinoma (6% vs 17%, p=, Tumor Site: Type of Lesion: Uterus: carcinoma (2% vs 90%, p<10-8), Uterus: lymphoma (2% vs 14%, p=0.03), Liver: adenoma and carcinoma (6% vs 17%, p=): active; positive
carcinogen call (Species: Mouse, Strain/Sex: B6C3F1/Male (50/Group), Route: Inhalation, Dose: 0, 15,000 ppm 6 hr/d, 5 d/wk for 100 wk): inactive; negative
carcinogen call (Species: RAT, Strain/Sex: F344/FEMALE, Route: INHALATION, Dose: 0, 15000 PPM IN AIR 6 HR/D 5 D/WK FOR 102 WK (STUDY DURATION: 102 WK), Tumor Site: Type of Lesion: BRAIN: ASTROCYTOMA): equivocal
carcinogen call (Species: RAT, Strain/Sex: F344/MALE, Route: INHALATION, Dose: 0, 15000 PPM IN AIR 6 HR/D 5 D/WK FOR 102 WK (STUDY DURATION: 102 WK), Tumor Site: Type of Lesion: SKIN: TRICHOEPITHELIOMA, SEBACEOUS GLAND ADENOMA OR BASAL CELL CARCINOMA): equivocal
carcinogen call (Species: Rat, Strain/Sex: F344/Female (50/Group), Route: Inhalation, Dose: 0, 15,000 ppm 6 hr/d, 5 d/wk for 102 wk): inactive; negative
carcinogen call (Species: Rat, Strain/Sex: F344/Male (50/Group), Route: Inhalation, Dose: 0, 15,000 ppm 6 hr/d, 5 d/wk for 102 wk): inactive; negative

O=[N+]([O-])c1ccc2ccc3c([N+](=O)[O-])c4ccccc4c4ccc1c2c34
carcinogen call (Species: RAT, Strain/Sex: F344/MALE, Route: SUBCUTANEOUS IMPLANT, Dose: 0, 8, 40, 200, 1000 UG IN 50 µL BEESWAX/TRICAPRYLIN IMPLANTED FOR UP TO 45 WK (STUDY DURATION: 45 WK), Dose: 0, 8, 40, 200, 1000 UG IN 50 µL BEESWAX/TRICAPRYLIN IMPLANTED FOR UP TO 45 WK (STUDY DURATION: 45 WK)): inactive; negative
carcinogen call (Species: RAT, Strain/Sex: F344/MALE, Route: SUBCUTANEOUS, Dose: 0, 8, 40, 200, 1000 UG SUSPENDED IN BEESWAX/TRICAPRYLIN (1:1) ONCE, Dose: 0, 8, 40, 200, 1000 UG SUSPENDED IN BEESWAX/TRICAPRYLIN (1:1) ONCE): inactive; negative

CC1CN(N=O)C(=O)NC1=O (centres undefined)
carcinogen call (Species: RAT, Strain/Sex: MRC-WISTAR/FEMALE, Route: ORAL, Dose: 0, 10 G TOTAL DOSE IN CITRATE BUFFER IN DRINKING WATER 5D/WK FOR 12 MO (STUDY DURATION: 2 YR)): inactive; negative
carcinogen call (Species: RAT, Strain/Sex: MRC-WISTAR/MALE, Route: ORAL, Dose: 0, 1 G TOTAL DOSE IN CITRATE BUFFER IN DRINKING WATER 5D/WK FOR 12 MO (STUDY DURATION: 2 YR)): inactive; negative

Reference: PubChem BioAssay AID1259411 (Chemical Carcinogenesis Research Information System (CCRIS), 2018)
